Data from US11913020B2, “Method for improving stem cell migration using ethionamide” (Samsung Life Public Welfare Foundation, priority 2017, dated 2024).

How the values were obtained:
[1] = test system: human umbilical cord mesenchymal stem cells; conditions: ethionamide 10 or 100 μM, 24 hours incubation; scratch observed after 14 hours; compared to control not treated
Method: To this end, human umbilical cord mesenchymal stem cells (5×10^4 cells) prepared according to the method described in Example 1 were dispensed into a 6-well plate, and simultaneously treated with ethionamide at 10 or 100 μM, followed by incubation for 24 hours. Subsequently, to inhibit cell proliferation, the cells were treated with mitomycin C at 10 μg/mL to allow a reaction for 2 hours, a scratch was made on the plate using a tip, followed by exchanging the medium with a fresh medium.

[2] = test system: human umbilical cord mesenchymal stem cells; conditions: ethionamide 10 or 100 μM, 24 hours incubation; compared to control not treated
Method: To this end, the human umbilical cord mesenchymal stem cells (5×10^4 cells) prepared by the method described in Example 1 were dispensed into a Transwell plate (Costar, USA) with an 8.0 μm pore size, and treated with ethionamide at 10 or 100 μM, followed by incubation for 24 hours. Subsequently, the cells were fixed with 4% paraformaldehyde and stained with hematoxylin, the inner side of the Transwell was wiped with a cotton tip, and then the number of cells present on the bottom surface of the Transwell was measured using a microscope.

CXCR4 = conditions: treated with ethionamide for 72 hours; compared with stem cells not treated (Control)
Method: To this end, the human mesenchymal stem cells prepared according to the method described in Example 1 were treated with ethionamide for 72 hours, and then lysed with TRIzol (Ambion, USA). Subsequently, following the addition of chloroform (Sigma Aldrich, USA) and centrifugation, only a supernatant was transferred to a new tube, treated with isopropanol (Amresco, USA), and centrifuged to precipitate RNA. Afterward, the precipitated RNA was treated with 75% ethanol (Merck Millipore, USA) for washing, and the completely dried RNA was dissolved in DEPC water (Biosesang, Korea). 5 μg of RNA extracted from the human mesenchymal stem cells treated or not treated with ethionamide by the above-described method was used for cDNA synthesis, and here, for the cDNA synthesis, a cDNA synthesis kit (Invitrogen, USA) was used. Afterward, 10 pM of a primer (Bioneer, Korea) specific for CXCR4, which is a gene related to stem cell migration, and a SYBR green master mix (Applied Biosystems, USA) were added to the synthesized cDNA, and cDNA was amplified using a real time-PCR device (Applied Biosystems, USA), followed by assessment of the amplified result to measure an initial amount of cDNA.

SMILES: CCc1cc(C(N)=S)ccn1 [ethionamide, 2-ethylpyridine-4-carbothioamide]
- migration ability of human mesenchymal stem cells (number of migrating stem cells) [1]: significantly increased
- invasion ability of human mesenchymal stem cells (number of cells on bottom surface of Transwell) [2]: significantly increased
- expression level of the CXCR4 gene (CXCR4): at least 4 fold
